Data on 13 compounds can be found in US20100152235A1, “OXADIAZOLE DERIVATIVES ACTIVE ON SPHINGOSINE-1-PHOSPHATE (S1P)” (priority 2007, published 2010).

Where a name gives a salt, the structure may show the parent alone.

In the first series the target is T1, human S1P1 receptor (Homo sapiens, UniProt P21453).
T1 construct: expressed in transfected cells; membranes
T1 sequence (P21453 whole entry): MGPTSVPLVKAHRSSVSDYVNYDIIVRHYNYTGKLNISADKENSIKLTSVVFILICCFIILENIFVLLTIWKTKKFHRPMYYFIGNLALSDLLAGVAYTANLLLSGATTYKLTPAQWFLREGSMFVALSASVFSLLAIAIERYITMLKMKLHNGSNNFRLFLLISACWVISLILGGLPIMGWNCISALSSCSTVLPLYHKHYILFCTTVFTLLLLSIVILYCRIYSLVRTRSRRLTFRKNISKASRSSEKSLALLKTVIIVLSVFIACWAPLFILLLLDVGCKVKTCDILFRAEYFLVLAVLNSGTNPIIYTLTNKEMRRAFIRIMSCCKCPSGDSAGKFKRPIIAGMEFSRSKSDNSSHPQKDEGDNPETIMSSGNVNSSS
Description: S1P1 GTPγS assay. The class given is biochemical. The note with it: [35S]-GTPγS SPA, membranes of rat hepatoma cells expressing human S1P1, agonist. Here is the method:
(§1) For membrane preparations all steps were performed at 4° C. Rat hepatoma cells stably expressing the human S1P1 receptor or Rat Basophilic Leukaemia cells (RBL) stably expressing human S1P3 receptor were grown to 80% confluency before being harvested into 10 ml Phospho-Buffered Saline (PBS) and centrifuged at 1200 rpm for 5 minutes. After removal of the supernatant, the pellet was re-suspended and cells were homogenised within a glass Waring blender for 2 bursts of 15 secs in 200 mls of buffer (50 mM HEPES, 1 mM leupeptin, 25 μg/ml bacitracin, 1 mM EDTA, 1 mM PMSF, 2 μM pepstatin A). The blender was plunged into ice for 5 mins after the first burst and 10-40 mins after the final burst to allow foam to dissipate. The material was then spun at 500 g for 20 mins and the supernatant spun for 36 mins at 48,000 g. The pellet was resuspended in the same buffer as above but without PMSF and pepstatin A. The material was then forced through a 0.6 mm needle, made up to the required volume, (usually ×4 the volume of the original cell pellet), aliquoted and stored frozen at −80° C.
as §1, with “All” for “For membrane preparations all”, “Cells” for “Rat hepatoma cells stably expressing the human S1P1 receptor or Rat Basophilic Leukaemia cells (RBL) stably expressing human S1P3 receptor were grown to 80% confluency before being harvested into 10 ml Phospho-Buffered Saline (PBS) and centrifuged at 1200 rpm for 5 minutes. After removal of the supernatant, the pellet was re-suspended and cells”
Human S1P1 rat hepatoma membranes (1.5 μg/well) were adhered to a wheatgerm agglutinin (WGA)-coated scintillation proximity assay (SPA) beads (0.125 mg/well) in assay buffer (HEPES 20 mM, MgCl2 10 mM, NaCl 100 mM and pH adjusted to 7.4 using KOH 5 M, GDP 10 μM FAC (final assay concentration) and saponin 90 μg/ml FAC was also added).
After 30 minutes pre-coupling on ice the bead and membrane suspension was dispensed into a white Greiner polypropylene LV384-well plate ([…]), containing 0.1 μl of the compound. […] [^35S]-GTPγS (0.5 nM final radioligand conc) made up in assay buffer was then added to agonist plates. The final assay cocktail (10.1 μl) was then centrifuged at 1000 rpm for 5 minutes then read immediately on a Viewlux reader.
All test compounds were dissolved in DMSO at a concentration of 10 mM and were prepared in 100% DMSO using a 1 in 4 dilution step to provide 11 point dose response curves. The dilutions were transferred to the assay plates ensuring that the DMSO concentration was constant across the plate for all assays.
All data was normalized to the mean of 16 high and 16 low control wells on each plate. A four parameter curve fit was then applied.
S1P1 expressing RH7777 membranes (1.5 μg/well) […] were homogenised by passing through a 23G needle. These were then adhered to WGA-coated SPA beads (0.125 mg/well) in assay buffer (HEPES 20 mM, MgCl2 10 mM, NaCl 100 mM and pH adjusted to 7.4 using KOH 5M). GDP […] FAC and saponin 90 μg/ml FAC were also added.
After 30 minutes precoupling on ice, the bead and membrane suspension was dispensed into white Greiner polypropylene LV 384-well plates (5 μl/well), containing 0.1 μl of compound. 5 μl/well [^35S]-GTPγS (0.5 nM for S1P1 or 0.3 nM for S1P3 final radioligand concentration) made in assay buffer was then added to the plates. The final assay cocktail (10.1 μl) was then sealed, spun on a centrifuge, then read immediately on a Viewlux instrument.
(In general: Binding of GTPγS marks nucleotide exchange on a G protein.)
What is called EC50 is the concentration that produces a half-maximal response. The low end stands for higher potency in that assay, the high end for lower potency in that assay. As for `Cc1c(-c2noc(-c3ccc(OC(C)C)c(C#N)c3)n2)ccc2c1CCN(CC(=O)O)C2` [Example 12, [6-(5-{3-Cyano-4-[(1-methylethyl)oxy]phenyl}-1,2,4-oxadiazol-3-yl)-5-methyl-3,4-dihydro-2(1H)-isoquinolinyl]acetic acid], the EC50 was < 100 nM.

Consider `CC(C)Oc1ccc(-c2nc(-c3cccc4c3CCN(CC(=O)O)C4)no2)cc1C#N` [Example 4, [5-(5-{3-cyano-4-[(1-methylethyl)oxy]phenyl}-1,2,4-oxadiazol-3-yl)-3,4-dihydro-2(1H)-isoquinolinyl]acetic acid hydrochloride], for which the concentration giving a half-maximal response (EC50) was < 10 nM.

On to `Cc1c(-c2noc(-c3ccc(OC(C)C)c(Cl)c3)n2)ccc2c1CCN(CCC(=O)O)C2` [Example 8, 3-[6-(5-{3-Chloro-4-[(1-methylethyl)oxy]phenyl}-1,2,4-oxadiazol-3-yl)-5-methyl-3,4-dihydro-2(1H)-isoquinolinyl]propanoic acid], for which the EC50 is < 10 nM.

As for `CC(C)Oc1ccc(-c2nc(-c3cccc4c3CCNC4)no2)cc1C#N` [Example 2, 2-[(1-methylethyl)oxy]-5-[3-(1,2,3,4-tetrahydro-5-isoquinolinyl)-1,2,4-oxadiazol-5-yl]benzonitrile hydrochloride], the EC50 is < 10 nM.

In the case of `CC(C)Oc1ccc(-c2nc(-c3cccc4c3CCN(CCCC(=O)O)C4)no2)cc1C#N` [Example 6, 4-[5-(5-{3-cyano-4-[(1-methylethyl)oxy]phenyl}-1,2,4-oxadiazol-3-yl)-3,4-dihydro-2(1H)-isoquinolinyl]butanoic acid hydrochloride], the EC50 is < 10 nM.

In the case of `CC(C)Oc1ccc(-c2nc(-c3cccc4c3CCNC4)no2)cc1C#N` [Example 3, 2-[(1-methylethyl)oxy]-5-[3-(1,2,3,4-tetrahydro-5-isoquinolinyl)-1,2,4-oxadiazol-5-yl]benzonitrile], the EC50 is < 100 nM.

As for `Cc1c(-c2noc(-c3ccc(OC(C)C)c(C#N)c3)n2)ccc2c1CCN(CCC(=O)O)C2` [Example 13, 3-[6-(5-{3-Cyano-4-[(1-methylethyl)oxy]phenyl}-1,2,4-oxadiazol-3-yl)-5-methyl-3,4-dihydro-2(1H)-isoquinolinyl]propanoic acid sodium salt], the EC50 was < 100 nM.

Turning to `CC(C)Oc1ccc(-c2nc(-c3cccc4c3CCN(CCC(=O)O)C4)no2)cc1C#N` [Example 5, 3-[5-(5-{3-cyano-4-[(1-methylethyl)oxy]phenyl}-1,2,4-oxadiazol-3-yl)-3,4-dihydro-2(1H)-isoquinolinyl]propanoic acid hydrochloride], the EC50 was < 100 nM.

As for `Cc1c(-c2noc(-c3ccc(OC(C)C)c(Cl)c3)n2)ccc2c1CCN(CC(=O)O)C2` [Example 9, [6-(5-{3-Chloro-4-[(1-methylethyl)oxy]phenyl}-1,2,4-oxadiazol-3-yl)-5-methyl-3,4-dihydro-2(1H)-isoquinolinyl]acetic acid], the concentration giving a half-maximal response (EC50) was < 100 nM.

For the compound `CC(C)Oc1ccc(-c2nc(-c3cccc4c3CCN(C)C4)no2)cc1C#N` [Example 7, 2-[(1-methylethyl)oxy]-5-[3-(2-methyl-1,2,3,4-tetrahydro-5-isoquinolinyl)-1,2,4-oxadiazol-5-yl]benzonitrile], the EC50 was < 100 nM.

In the case of `Cc1c(-c2noc(-c3ccc(OC(C)C)c(C#N)c3)n2)ccc2c1CCNC2` [Example 11, 2-[(1-Methylethyl)oxy]-5-[3-(5-methyl-1,2,3,4-tetrahydro-6-isoquinolinyl)-1,2,4-oxadiazol-5-yl]benzonitrile trifluoroacetic acid salt], the half-maximal effective concentration (EC50) is < 100 nM.

On to `CC(C)Oc1ccc(-c2nc(-c3cccc4c3CCNC4)no2)cc1Cl` [Example 1, 5-(5-{3-chloro-4-[(1-methylethyl)oxy]phenyl}-1,2,4-oxadiazol-3-yl)-1,2,3,4-tetrahydroisoquinoline hydrochloride], for which the EC50 was < 100 nM.

The test system of a further series is circulating lymphocytes.
Assay: not given
The note with it: animals and man, literature; cited from earlier work.
As for `CCCCCCCCc1ccc(CCC(N)(CO)CO)cc1` [FTY720], the “effect on circulating lymphocytes” value was “reduce circulating lymphocytes in animals and man”.

Tested on in another series: not given
Assay: not given
The note with it: clinical studies, first 24 hours of treatment, literature; cited from earlier work.
On to `CCCCCCCCc1ccc(CCC(N)(CO)CO)cc1` [FTY720], for which the bradycardia result is listed as “results in bradycardia in the first 24 hours of treatment”.
